Series [1] relates to West Nile virus. In words: Inhibition of West Nile virus His-tagged NS2B-NS3 protease expressed in Escherichia coli BL21(DE3) at 50 uM using Abz-Gly-Leu-Lys-Arg-Gly-Gly-3-(NO2)Tyr as substrate preincubated for 15 mins followed by substrate addition measured for 15 mins by fluorescence assay relative to control.
Series [2] is described as follows: Inhibition of Dengue virus serotype 2 His-tagged NS2B-NS3 protease using Abz-Nle-Lys-Arg-Arg-Ser-3-(NO2)Tyr as substrate preincubated for 15 mins followed by substrate addition measured for 15 mins by fluorescence assay. Also noted: species or system dengue virus type 2.
Series [3] has as its system dengue virus type 2. Description: Inhibition of Dengue virus serotype 2 His-tagged NS2B-NS3 protease expressed in Escherichia coli BL21(DE3) at 50 uM using Abz-Nle-Lys-Arg-Arg-Ser-3-(NO2)Tyr as substrate preincubated for 15 mins followed by substrate addition measured for 15 mins by fluorescence assay relative to control.
Series [4] in a line: Inhibition of Zika virus N-terminal His-tagged NS2B-NS3 protease expressed in Escherichia coli BL21 GOLD(DE3) using Bz-Nle-Lys-Lys-Arg-AMC as substrate preincubated for 10 mins followed by substrate addition by fluorophotometric method.
Series [5] in a line: Cytotoxicity against human HuH7 cells assessed as reduction in cell viability after 48 hrs by CellTiter-Glo assay. The series is classed as toxicity, cell-based, Huh-7.
Series [6] has as its system dengue virus type 2. Description: Antiviral activity against Dengue virus serotype 2 infected in African green monkey Vero E6 cells assessed as virus yield reduction at 50 uM after 7 days by crystal violet staining based plaque assay relative to control. The series is classed as functional. Also noted: scale not given: the % may be the effect or the level left.
In series [7] the test system is West Nile virus. In words: Antiviral activity against West Nile virus infected in African green monkey Vero E6 cells assessed as virus yield reduction at 50 uM after 3 days by crystal violet staining based plaque assay relative to control. In kind it is functional. On the set-up: scale not given: the % may be the effect or the level left.
Series [8] can be described thus: Inhibition of West Nile virus His-tagged NS2B-NS3 protease expressed in Escherichia coli BL21(DE3) using Abz-Gly-Leu-Lys-Arg-Gly-Gly-3-(NO2)Tyr as substrate preincubated for 15 mins followed by substrate addition measured for 15 mins by fluorescence assay.
In series [9] the test system is dengue virus type 2. Description: Antiviral activity against Dengue virus serotype 2 infected in African green monkey Vero E6 cells assessed as virus yield reduction after 7 days by crystal violet staining based plaque assay. In kind it is functional, cell-based. The note with it: 168 h.
Series [10] has as its system West Nile virus. In words: Antiviral activity against West Nile virus infected in African green monkey Vero E6 cells assessed as virus yield reduction after 3 days by crystal violet staining based plaque assay. The series is classed as functional, cell-based. The note with it: 72 h.
The test system of series [11] is dengue virus type 2. In words: Antiviral activity against Dengue virus serotype 2 infected in African green monkey Vero E6 cells assessed as virus yield reduction at 3.1 uM after 7 days by crystal violet staining based plaque assay relative to control. The series is classed as functional. Also noted: scale not given: the % may be the effect or the level left.

The text below walks through data of ChEMBL document CHEMBL3877304, “Peptide-Boronic Acid Inhibitors of Flaviviral Proteases: Medicinal Chemistry and Structural Biology” (J Med Chem, 2017).

Each structure is given as a SMILES string. Where a SMILES comes first, the peptide text is derived from it. [ ]: non-standard residue; d: D form. The star is where a group is joined. Phe(4-guanidino) = N=C(N)Nc1ccc(C[C@H](N)C(=O)O)cc1; Phe(4-CH2NH2) = NCc1ccc(C[C@H](N)C(=O)O)cc1; Phe(4-NH2) = Nc1ccc(C[C@H](N)C(=O)O)cc1; Bz = O=C(c1ccccc1)*

In the series on West Nile virus [1], `N=C(N)NCCC[C@H](NC(=O)[C@H](Cc1cccc(NC(=N)N)c1)NC(=O)c1ccccc1)C(N)=O` displayed an inhibition of 33%. For the same compound, the IC50 in [2] was 211000 nM.
Consider `N=C(N)NCCC[C@H](NC(=O)[C@H](Cc1ccc(CN)cc1)NC(=O)c1ccccc1)C(N)=O` (Bz-[Phe(4-CH2NH2)]-Arg-NH2), for which the inhibition with West Nile virus [1] was determined as 20%; with dengue virus type 2 [3], 6.6%.
Regarding `NCCC[C@H](NC(=O)c1ccccc1)B(O)O`, the IC50 in [4] is greater than 50000 nM. Moreover, the half-maximal cytotoxic concentration (CC50) at 48 h in [5] is greater than 100000 nM. The Activity is listed as 7.5% with dengue virus type 2 [6] and 33% in the series with West Nile virus [7]. For the same compound, the inhibition stood at 30% with West Nile virus [1] and 8.3% with dengue virus type 2 [3].
For `CC(C)(C)c1ccc(C(=O)N[C@@H](Cc2ccc(NC(=N)N)cc2)C(=O)N[C@@H](CCCNC(=N)N)C(N)=O)cc1`, the inhibition in the series on West Nile virus [1] turned out to be 34%. Besides, in series [2], the concentration for half-maximal inhibition (IC50) amounted to 145000 nM.
Turning to `N=C(N)NCCC[C@H](NC(=O)[C@@H](NC(=O)c1ccccc1)c1cccc(NC(=N)N)c1)C(N)=O`, the inhibition in the series on West Nile virus [1] was 22%; in the series with dengue virus type 2 [3], 9.8%.
As for `N=C(N)NCCC[C@H](NC(=O)[C@H](Cc1ccc(NC(=N)N)cc1)NC(=O)c1ccccc1)C(N)=O` (Bz-[Phe(4-guanidino)]-Arg-NH2), in the series on West Nile virus [1], the inhibition came to 34%. Further, in [2], it took 87000 nM to reach half-maximal inhibition (IC50) and the affinity, expressed as Ki, was 29000 nM.
In the case of `N=C(N)NCCC[C@H](NC(=O)[C@H](Cc1ccc(NC(=N)N)cc1)NC(=O)c1ccccc1)B(O)O`, the IC50 amounted to 830 nM in [4], 71 nM in series [8] and 36 nM in [2]. Besides, the CC50 at 48 h in series [5] is greater than 100000 nM. Also, the inhibition constant (Ki) in series [8] came to 65 nM; in series [2] it was 27 nM. For the same compound, the half-maximal effective concentration (EC50) in the series with dengue virus type 2 [9] came out at 18000 nM; in the series with West Nile virus [10] it was 25000 nM.
For the compound `N=C(N)NCCC[C@H](NC(=O)[C@H](Cc1ccc(CN)cc1)NC(=O)c1ccccc1)B(O)O`, the half-inhibitory concentration (IC50) came out at 250 nM in series [4], 110 nM in series [8] and 66 nM in [2]. The Ki in [4] came out at 40 nM; in series [8] it was 82 nM; in series [2], 51 nM. The 50% cytotoxic concentration (CC50) at 48 h in series [5] is greater than 100000 nM. Moreover, the values for the EC50 in the series with dengue virus type 2 [9] and in the series with West Nile virus [10] were 30000 nM and 38000 nM, respectively.
Take `N=C(N)NCCC[C@H](NC(=O)[C@@H](NC(=O)c1ccccc1)c1cccc(NC(=N)N)c1)B(O)O`: the results for the IC50 in [4], in series [8] and in series [2] were 1200 nM, 140 nM and 260 nM, respectively. The 50% cytotoxic concentration (CC50) at 48 h in [5] was greater than 100000 nM. The inhibitory constant (Ki) worked out at 120 nM in series [8] and 220 nM in series [2]. Further, the results for the Activity in the series with dengue virus type 2 [6] and in the series on West Nile virus [7] were 24% and 47%, respectively.
For the compound `N=C(N)NCCC[C@H](NC(=O)[C@H](Cc1ccc(N)cc1)NC(=O)c1ccccc1)B(O)O`, the IC50 in series [4] was greater than 40000 nM; in [8], 7400 nM; in series [2], 7400 nM. For the same compound, the Activity in the series with dengue virus type 2 [11] worked out at 44%. Moreover, the cytotoxic concentration (CC50) at 48 h in series [5] worked out at 10100 nM. Moreover, the inhibition constant (Ki) in [8] amounted to 6000 nM; in series [2], 4200 nM. Also, the EC50 in the series with West Nile virus [10] came to 1500 nM.
As to `N=C(N)NCCC[C@H](NC(=O)[C@H](Cc1ccc(N)cc1)NC(=O)c1ccccc1)C(N)=O` (Bz-[Phe(4-NH2)]-Arg-NH2), the inhibition in the series on West Nile virus [1] was 13%; in the series with dengue virus type 2 [3], 5.2%.
For the compound `NCCC[C@H](NC(=O)c1ccccc1)C(N)=O`, the figures for the inhibition with West Nile virus [1] and in the series with dengue virus type 2 [3] were 18% and 2%, respectively.
Consider `N=C(N)NCCC[C@H](NC(=O)c1ccccc1)C(N)=O`, for which the inhibition in the series on West Nile virus [1] was found to be 9.6%; in the series with dengue virus type 2 [3], 9.7%.
For `CC(C)(C)c1ccc(C(=O)N[C@@H](Cc2ccc(NC(=N)N)cc2)C(=O)N[C@@H](CCCNC(=N)N)B(O)O)cc1`, the IC50 is 2100 nM in series [4], 210 nM in series [8] and 110 nM in series [2]. In [5], the CC50 at 48 h is greater than 100000 nM. Moreover, the inhibitory constant (Ki) worked out at 160 nM in [8] and 78 nM in [2]. For the same compound, the EC50 with dengue virus type 2 [9] was determined as 19000 nM. Also, the Activity with West Nile virus [7] stood at 30%.
For the compound `N=C(N)NCCC[C@H](NC(=O)[C@H](Cc1cccc(NC(=N)N)c1)NC(=O)c1ccccc1)B(O)O`, the half-maximal inhibitory concentration (IC50) worked out at 1900 nM in series [4], 310 nM in series [8] and 110 nM in series [2]. In addition, in series [5], the CC50 at 48 h was no less than 100000 nM. The figures for the Ki in series [8] and in [2] were 300 nM and 91 nM, respectively. In the series with dengue virus type 2 [9], the EC50 was found to be 48000 nM. The Activity in the series with West Nile virus [7] stood at 38%.
Regarding `N=C(N)NCCC[C@H](NC(=O)c1ccccc1)B(O)O`, the half-maximal inhibitory concentration (IC50) in series [4] is greater than 50000 nM. For the same compound, in series [5], the CC50 at 48 h was greater than 100000 nM. Moreover, the Activity in the series with dengue virus type 2 [6] was 12%; with West Nile virus [7], 19%. Also, the inhibition in the series with West Nile virus [1] is 18%; with dengue virus type 2 [3], 51.9%.
